Measurements from ChEMBL document CHEMBL4622953, “Synthesis and biological evaluation of thioadatanserin and its dialkylated products as partial 5-HTR1A agonists and 5-HTR2A antagonists for potential use in depression and anxiety disorders” (Bioorg Med Chem Lett, 2020).
Where a name gives a salt, the structure may show the parent alone.

Assays:
Type in all cases: cell-based
[1] = molecular target: 5-hydroxytryptamine receptor 2A (Homo sapiens, UniProt P28223); assay: Antagonist activity at recombinant human 5-HT2A expressed in human U2OS cells by pathhunter beta-arrestin assay
Chain of 5-hydroxytryptamine receptor 2A (P28223 whole entry): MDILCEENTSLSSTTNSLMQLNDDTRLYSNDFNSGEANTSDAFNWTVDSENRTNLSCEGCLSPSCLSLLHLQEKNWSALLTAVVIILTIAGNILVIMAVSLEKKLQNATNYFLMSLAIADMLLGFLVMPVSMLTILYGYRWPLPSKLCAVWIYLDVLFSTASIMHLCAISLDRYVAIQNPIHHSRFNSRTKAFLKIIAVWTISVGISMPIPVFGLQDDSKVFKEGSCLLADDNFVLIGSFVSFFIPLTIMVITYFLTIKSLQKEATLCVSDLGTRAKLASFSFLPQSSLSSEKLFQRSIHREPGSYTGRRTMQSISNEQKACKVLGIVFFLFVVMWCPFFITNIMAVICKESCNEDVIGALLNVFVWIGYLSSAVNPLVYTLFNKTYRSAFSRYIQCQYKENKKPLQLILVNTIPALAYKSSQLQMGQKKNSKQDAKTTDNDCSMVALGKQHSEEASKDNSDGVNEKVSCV

[2] = molecular target: T1, 5-hydroxytryptamine receptor 2C (Homo sapiens, UniProt P28335); assay: Antagonist activity at recombinant human 5-HT2C expressed in human U2OS cells by pathhunter beta-arrestin assay
T1 sequence (P28335 whole entry): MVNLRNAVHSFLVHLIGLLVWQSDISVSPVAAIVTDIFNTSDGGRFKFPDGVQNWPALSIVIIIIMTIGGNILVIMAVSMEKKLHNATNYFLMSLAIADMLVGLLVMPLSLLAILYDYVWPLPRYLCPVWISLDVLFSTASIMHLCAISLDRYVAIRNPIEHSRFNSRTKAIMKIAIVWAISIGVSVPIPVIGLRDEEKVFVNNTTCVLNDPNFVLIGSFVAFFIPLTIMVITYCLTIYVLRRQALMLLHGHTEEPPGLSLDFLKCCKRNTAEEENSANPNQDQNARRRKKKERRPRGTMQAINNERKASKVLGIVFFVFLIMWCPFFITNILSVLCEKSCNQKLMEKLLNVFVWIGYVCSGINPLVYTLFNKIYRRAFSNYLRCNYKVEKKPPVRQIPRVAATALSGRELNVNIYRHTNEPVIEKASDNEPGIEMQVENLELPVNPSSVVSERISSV

[3] = molecular target: T2, 5-hydroxytryptamine receptor 1A (Homo sapiens, UniProt P08908); assay: Partial agonist activity at recombinant human 5-HT1A expressed in CHO-K1 cells by pathhunter beta-arrestin assay
T2 sequence (P08908 whole entry): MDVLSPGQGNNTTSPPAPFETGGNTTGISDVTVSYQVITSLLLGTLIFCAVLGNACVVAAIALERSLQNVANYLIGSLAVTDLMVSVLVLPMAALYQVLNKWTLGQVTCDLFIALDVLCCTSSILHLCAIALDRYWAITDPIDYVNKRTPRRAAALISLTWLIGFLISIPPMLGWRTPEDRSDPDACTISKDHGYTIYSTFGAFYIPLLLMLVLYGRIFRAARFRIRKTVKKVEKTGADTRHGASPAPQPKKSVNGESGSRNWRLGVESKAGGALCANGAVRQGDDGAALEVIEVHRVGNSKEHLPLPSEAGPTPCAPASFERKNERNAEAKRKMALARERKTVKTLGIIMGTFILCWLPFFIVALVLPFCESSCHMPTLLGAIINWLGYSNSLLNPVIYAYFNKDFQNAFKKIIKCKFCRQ

SMILES | IC50 [1] [µM] | IC50 [2] [µM] | EC50 [3] [µM]
c1ccc(CS/C(=N/CC[N+]2(Cc3ccccc3)CCN(c3ncccn3)CC2)C23CC4CC(CC(C4)C2)C3)cc1 | > 10 |  | 
CS/C(=N/CC[N+]1(C)CCN(c2ncccn2)CC1)C12CC3CC(CC(C3)C1)C2 | > 10 |  | > 10
Cc1cc2c(cc1Cl)N(C(=O)Nc1ccc(Oc3cccnc3C)nc1)CC2 [SB-242084] |  | 0.00033 | 

Second part, led by results:

IC50 [1] [µM] | IC50 [2] [µM] | SMILES | EC50 [3] [µM]
0.0623 | > 3.33 | S=C(NCCN1CCN(c2ncccn2)CC1)C12CC3CC(CC(C3)C1)C2 | 
0.0337 | 1.26 | O=C(NCCN1CCN(c2ncccn2)CC1)C12CC3CC(CC(C3)C1)C2 [ADATANSERIN HYDROCHLORIDE] | 0.0021
